Experimental data published in ChEMBL document CHEMBL1201862, “PubChem BioAssay data set” (2004).
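1) Cells in 96-well plates. 2) Compound, 48 h, 5 concentrations. 3) Linear interpolation between surrounding doses. 4) Unreached endpoint = highest concentration. GI50 is the concentration that inhibits growth by half.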 Calls of active or inactive are those of the source. No stated cut-off is given here; in the data, active = GI50 up to about 1.1 µM and inactive = higher.

What was measured:
Assay in all cases: growth of human tumour cells (NCI), 48 h
RPMI-8226 = tested on: RPMI-8226
K562 = tested on: K562
HCT-116 = tested on: HCT-116
T47D = tested on: T47D
MDA-N = tested on: MDA-N
SK-MEL-28 = tested on: SK-MEL-28
MDA-MB-435 = tested on: MDA-MB-435
HT-29 = tested on: HT-29
HCC 2998 = tested on: HCC 2998
MCF7 = tested on: MCF7
A549 = tested on: A549
MOLT-4 = tested on: MOLT-4
CCRF-CEM = tested on: CCRF-CEM
SK-OV-3 = tested on: SK-OV-3
NCI-H226 = tested on: NCI-H226
MDA-MB-231 = tested on: MDA-MB-231
SN12C = tested on: SN12C
SK-MEL-5 = tested on: SK-MEL-5
CAKI-1 = tested on: CAKI-1
U-251 = tested on: U-251

Measured: GI50

CC[P+](C#Cc1ccccc1)(c1ccccc1)c1ccccc1
active: RPMI-8226 0.242 µM | K562 0.224 µM | CCRF-CEM 0.358 µM | U-251 0.562 µM
inactive: HCT-116 1.77 µM | T47D 2.18 µM | MDA-N 1.56 µM | SK-MEL-28 1.95 µM | MDA-MB-435 1.24 µM | HT-29 2.43 µM | HCC 2998 1.97 µM | MCF7 3.09 µM | A549 3.08 µM | MOLT-4 1.36 µM | SK-OV-3 2.93 µM | NCI-H226 2.82 µM | MDA-MB-231 3.18 µM | SN12C 1.75 µM | SK-MEL-5 1.22 µM | CAKI-1 9.66 µM

CNc1nc2n(CCO)c(-c3ccccc3)c(-c3ccccc3)nc-2c(=O)n1
inactive: RPMI-8226 > 50 µM | K562 > 50 µM | HCT-116 > 50 µM | T47D > 50 µM | MDA-N > 50 µM | SK-MEL-28 > 50 µM | MDA-MB-435 > 50 µM | HT-29 > 50 µM | HCC 2998 > 50 µM | MCF7 > 50 µM | A549 > 50 µM | MOLT-4 > 50 µM | CCRF-CEM > 50 µM | SK-OV-3 > 50 µM | NCI-H226 > 50 µM | MDA-MB-231 > 50 µM | SN12C > 50 µM | SK-MEL-5 > 50 µM | CAKI-1 > 50 µM | U-251 > 50 µM

CC(=O)Nc1cccc(N2C(=O)/C(=C\c3cccc(Oc4ccccc4)c3)S(=O)(=O)C2c2ccccc2)c1 (stereo not given)
inactive: RPMI-8226 61.5 µM | K562 26.7 µM | HCT-116 34.1 µM | T47D 25 µM | MDA-N 33.1 µM | SK-MEL-28 > 100 µM | MDA-MB-435 34 µM | HT-29 64.9 µM | HCC 2998 > 100 µM | MCF7 34 µM | A549 > 100 µM | MOLT-4 16.1 µM | CCRF-CEM 57.8 µM | SK-OV-3 > 100 µM | NCI-H226 > 100 µM | MDA-MB-231 > 100 µM | SN12C > 100 µM | SK-MEL-5 76.6 µM | CAKI-1 53.5 µM | U-251 65.6 µM

COC(=O)C#CC1(O)C=CC(=O)C=C1
inactive: MDA-N 1.18 µM | HCC 2998 2.54 µM | A549 9.46 µM | SK-OV-3 28 µM | NCI-H226 5.07 µM | MDA-MB-231 2 µM | SK-MEL-5 1.72 µM
active: RPMI-8226 0.687 µM | K562 0.392 µM | HCT-116 0.256 µM | T47D 0.583 µM | SK-MEL-28 0.579 µM | MDA-MB-435 0.436 µM | HT-29 0.253 µM | MCF7 0.352 µM | MOLT-4 0.0933 µM | CCRF-CEM 0.106 µM | SN12C 0.789 µM | CAKI-1 0.209 µM | U-251 0.841 µM

O=C(C=P(c1ccccc1)(c1ccccc1)c1ccccc1)c1ccc(-c2cccc([N+](=O)[O-])c2)cc1
inactive: RPMI-8226 1.87 µM | K562 3.35 µM | HCT-116 2.21 µM | T47D 3.85 µM | MDA-N 2.88 µM | SK-MEL-28 4.98 µM | MDA-MB-435 2.39 µM | HT-29 1.75 µM | HCC 2998 1.66 µM | MCF7 3.13 µM | A549 3.64 µM | MOLT-4 2.96 µM | CCRF-CEM 2.79 µM | SK-OV-3 4.03 µM | NCI-H226 5.01 µM | MDA-MB-231 2.65 µM | SN12C 3.13 µM | SK-MEL-5 2.22 µM | CAKI-1 2.74 µM | U-251 3.84 µM

CC(=O)NC1C(OCc2ccccc2)OC(CO)C(O)C1OCC(=O)N[C@@H](C)C(=O)N[C@H](CCC(=O)NCCCCNc1c2ccccc2nc2cccc([N+](=O)[O-])c12)C(N)=O (stereo not given in full)
active: HCT-116 0.637 µM | HCC 2998 0.682 µM | MCF7 0.771 µM | A549 0.959 µM | SK-MEL-5 0.516 µM
inactive: RPMI-8226 1.64 µM | K562 1.13 µM | T47D 1.61 µM | MDA-N 1.64 µM | SK-MEL-28 4.5 µM | MDA-MB-435 1.62 µM | HT-29 1.18 µM | MOLT-4 1.6 µM | CCRF-CEM 4.11 µM | SK-OV-3 7.59 µM | NCI-H226 1.84 µM | MDA-MB-231 2.5 µM | SN12C 2.25 µM | CAKI-1 1.49 µM | U-251 1.87 µM

O=C(CCc1ccc(O)c(O)c1)NCCc1cc(O)cc(OCc2ccccc2)c1
inactive: RPMI-8226 9.04 µM | K562 37 µM | HCT-116 33.5 µM | T47D 15.3 µM | MDA-N 19.5 µM | SK-MEL-28 44.3 µM | MDA-MB-435 27.2 µM | HT-29 38.9 µM | HCC 2998 17.1 µM | MCF7 26.9 µM | A549 52.6 µM | MOLT-4 14 µM | CCRF-CEM 6.87 µM | SK-OV-3 28.7 µM | NCI-H226 58.7 µM | MDA-MB-231 27.2 µM | SN12C 24.9 µM | SK-MEL-5 13.5 µM | CAKI-1 12.6 µM | U-251 26.6 µM
